# In patent US11564975B2, “Use of GHRP-6 as late cardioprotective and cardiac restoration medicament” (Centro de Ingeniería Genética y Biotecnología, priority 2018, dated 2023):
# Values joined by “and” are separate entries in the source; they are usually repeats but may differ in a detail not shown here. Equal entries are not always repeated. “Also recorded” adds a separate entry of the source.
# Legend:
# [1] = system: AMI with a ST Segment elevation; test: AMI in pigs, one hour circumflex artery clamping followed by reperfusion; type: in vivo, female pigs of the Yorkshire breed; conditions: for Infarction Area (%): day 10
# Protocol: (§1) The objective of the study was to evaluate, and to compare, the therapeutic impact of the late administration of GHRP-6 on functional parameters of the left ventricle, regarding the effect of the peptide acutely administered. Another objective was to assess the effect of late treatment in a group of animals in which the reperfusion was not performed.
# (§2) The implementation of the AMI was performed in female pigs of the Yorkshire breed, with body weight of 22-27 kg. The anesthesia was induced with propofol, midazolam and pancuronium, by intravenous route. Under general anesthesia, obtained with a mixture of isofluorane/oxygen and nitrous oxide the ischemia was provoked. It was induced by a thoracotomy between the fifth and sixth intercostal spaces, until reaching the left circumflex artery, which was occluded by a 30 mm arterial clamping for one hour. Immediately, the record of the electrocardiogram and the heart rate was taken, every 20 seconds. At the end of 60 minutes of occlusion, the clamping was released, and so began the reperfusion phase, to complete the 10 days after ischemia. For the experimental group without reperfusion, that simulates the state called as non-reflux, a permanent ligation of the circumflex artery, with surgical thread, was performed. Both procedures, clamping and permanent ligation, induce an AMI with a ST Segment elevation. The recording of heart rate and electrocardiogram continued until the superficial suture of the thorax. The animals were sacrificed, by exsanguination, on the tenth day after the ischemia episode was induced. Under an anesthetic overdose, the determination of the area of the AMI was made, by means of the calculation of the area at risk with Evans blue.
# (§3) For the echocardiographic evaluation, the pigs were previously sedated with a mixture of propofol/midazolam. A Kontron ultrasound system, Sigma 1 AC Cardio model, equipped with 3.5-7.5 MHz mechanical-cardiac sector transducers was used.
# (§4) The parameters evaluated were the following: • Left Ventricle Ejection Fraction (LVEF), estimated by the Teich method. • Left Ventricle Tele-Systolic and Tele-diastolic Pressures. • Infarction Area, estimated on the area at risk (%).
# (§5) Seven animals per group were used. In all groups, the animals received treatment every 12 hours, for 10 days after ischemia. The administrations of GHRP-6 or placebo were performed through a central catheter. In the case of the groups that received the peptide, it was diluted in 10 ml of physiological saline. The essence of the study was to evaluate the influence of the time of initiation of treatment on functional parameters and size of the ventricular not viable territory.
# [2] = system: AMI with elevated ST segment; test: Second cohort: AMI patients with low cardiac output syndrome / cardiogenic shock, late treatment with GHRP-6; type: in vivo, human; conditions: for LVEF: individual patients, late treatment, echocardiography at 90 days
# Protocol: Second cohort. Comprising 13 patients over 30 years old, of both sexes, with a diagnosis of AMI with elevated ST segment, who received percutaneous transluminal angioplasty before 12 hours of implantation of precordial pain. All these patients evolved in an unfavorable way, and with uncertain prognosis between 24 and 96 hours after a successful endoluminal reperfusion, according to the imaging criteria all were considered as TIMI grade 3.
# This led to the decision of establishing an alternative treatment with GHRP-6, to try to reduce dyskinesia of the ventricular musculature, to attenuate the process of presumed stunning, to dampen hypoxia, and to rescue from death a territory of ischemic ventricular mass. The patients who implanted a reinfarction received rescue angioplasty. One of these patients died during the procedure. None of the patients met criteria for the coronary revascularization practice. In these cases, the first administration of the peptide was carried out at least after 48 hours of torpid evolution after a TIMI 3. During the treatment time, the GHRP-6 was administered intravenously, every 12 hours.
# [3] = system: AMI with a ST Segment elevation; test: AMI in pigs without reperfusion (non-reflux), permanent ligation of the circumflex artery; type: in vivo, female pigs of the Yorkshire breed
# Protocol: as §1, §2, §3, §4, §5
# [4] = system: AMI with ST segment elevation; test: First cohort: patients with AMI with ST segment elevation, GHRP-6 immediately after angioplasty; type: in vivo, human
# Protocol: First cohort. Comprising 19 patients over 30 years old, of both sexes, with a diagnosis of AMI with ST segment elevation, all with occlusion of the anterior descending artery, first episode, who arrived at a cardiology department before 12 hours of implantation of the precordial pain. The average door-ball time was 6 hours. All patients received primary percutaneous transluminal angioplasty, and immediately after the culprit artery flow was restored they received treatment with GHRP-6. In some patients, the treatment was performed by intra-coronary flushing, after the flow was restored. Residual lesions occupied less than 25% of the initial occlusion area, so it was considered as a TIMI 3, according to the Coronary Risk Score known as TIMI. In other cases, the first administration was performed by a central-venous route, just at the time of reperfusion, in the hemodynamic room. GHRP-6 was administered at a dose of 100 μg/kg of body weight, twice a day, for 7 days, time spent in the coronary intensive care hospital room. […]
# Grade IV heart failure = test: Compassionate treatment of patients with Grade IV heart failure awaiting heart transplantation; type: in vivo, human; conditions: for Cardiac output (L/m) / LVEF % / Oxygen consumption / Systolic volume: individual patients
# Excerpt: This is a cohort of 7 patients, who received the compassionate treatment with GHRP-6, under informed consent. All patients were in advanced heart failure, evaluated as functional class grade IV, according to the scale of the New York Heart Association. These patients were hospitalized in specialized cardiology services of two hospitals, and the ischemic heart disease, the idiopathic dilated cardiomyopathy, the heart valve disease, and the postpartum dilated cardiomyopathy were considered as the underlying condition for heart failure. […] They had minimal effort dyspnea, inability to adequately fulfill the 6 minutes' walk test, and instability in fluid balance and renal function, despite the diet control and the treatment with diuretics, the restriction of salt and the monitoring body weight.
# All patients received between 50 and 200 μg of GHRP-6/kg body weight, two or three times a day, according to medical criteria, by intravenous route. All treatments were performed while the patients were awaiting for heart transplantation. The treatment period with GHRP-6 was between 25 days and 30 days per cycle.
# A cycle of treatment with GHRP-6 was performed every three months. The maximum was three cycles. All patients were maintained with previous medical treatments, based on digital, diuretics, renin-angiotensin-aldosterone axis inhibitors (neurohormones) and pressor amines when required.
# [5] = Group 2: 400 μg/kg every 12 h for 10 days, onset immediately at the beginning of reperfusion
# [6] = Group 3: 400 μg/kg every 12 h, onset 72 hours after the start of reperfusion
# [7] = Group 4: 400 μg/kg every 12 h, onset 5 days after the start of reperfusion
# [8] = Group 5: no reperfusion, 400 μg/kg every 12 h, onset one hour after the artery was permanently clamped
# [9] = 30 days after PTA, 100 μg/kg twice a day for 7 days
# [10] = 90 days after PTA, 100 μg/kg twice a day for 7 days
# [11] = start of treatment, minutes after the PTA (baseline)
# [12] = after treatment, 50-200 μg/kg two or three times a day intravenously
substance,measurement,setting,value
growth hormone releasing peptide-6 [GHRP-6],LV telediastolic pressure (mmHg),[1]; [5],4.6 ± 1.1 mmHg
same,LV telesystolic pressure (mmHg),[1]; [5],80 ± 2.2 mmHg
same,LVEF %,[1]; [5],80 ± 2.5%
same,Infarction Area (%),[1]; [5],31.6 ± 5.2%
same,LV telediastolic pressure (mmHg),[1]; [6],4.4 ± 1.6 mmHg
same,LV telesystolic pressure (mmHg),[1]; [6],81 ± 3.0 mmHg
same,LVEF %,[1]; [6],77 ± 4.1%
same,Infarction Area (%),[1]; [6],35.4 ± 6.4%
same,LV telediastolic pressure (mmHg),[1]; [7],5.2 ± 0.8 mmHg
same,LV telesystolic pressure (mmHg),[1]; [7],77 ± 3.1 mmHg
same,LVEF %,[1]; [7],60 ± 6.6%
same,Infarction Area (%),[1]; [7],37.0 ± 4.3%
same,diastolic pressure compared to the placebo group,"[1]; all groups that received GHRP-6, regardless of when treatment started",significant reduction
same,LVEF rescued,"[1]; medicated from 5 days after the ischemic event, versus placebo",22%
same,decline of LVEF compared to baseline physiological conditions,[1]; start of treatment on the fifth day,21%
same,infarct size effect: treatment in parallel to reperfusion versus started 72 hours later,[1]; statistical comparison of Groups 2 and 3,no significant statistically differences
same,ventricular territory (area at risk) rescued from death,[1]; treatment initiated on the 5th day after ischemia,8%
same,reduction of the size of myocardial infarction in comparison to placebo,[1]; treatment started 72 hours after reperfusion,~13%
same,LVEF %. Mean ± SD,"[2]; Cohort 2, late treatment, 90 days after treatment",50.8 ± 5.34%
same,interval to suspension of vasopressor amines,[2]; after start of peptide treatment,~96 h
same,LVEF,[2]; 100 μg/kg every 12 hours,LVEF of 63%; also recorded: LVEF of 48%; also recorded: LVEF of 50%; also recorded: LVEF of 52%; also recorded: LVEF of 56%; also recorded: LVEF of 45%
same,LVEF,[2]; 200 μg/kg every 12 hours,LVEF of 47%; also recorded: LVEF of 51%; also recorded: LVEF of 46%
same,patients in whom suspension of vasopressor amines was achieved,"[2]; patients evaluated, after start of peptide treatment",8 out of 10
same,surviving patients of the 13 critical patients,[2]; second cohort,12
same,LV telediastolic pressure (mmHg),[3]; [8],5.1 ± 1.9 mmHg
same,LV telesystolic pressure (mmHg),[3]; [8],80 ± 2.6 mmHg
same,LVEF %,[3]; [8],72 ± 5.5%
same,Infarction Area (%),"[3]; Group 5: no reperfusion, 400 μg/kg every 12 h, onset one hour after the artery was permanently clamped, day 10",36.1 ± 2.8%
same,reduction of the area of ventricular death,[3]; no reperfusion,12%
same,LVEF difference with baseline conditions,"[3]; non-reflux group, without reperfusion",9%
same,LVEF %,[4]; [9],51 ± 8.6%
same,SPWT (mm),[4]; [9],11.6 ± 0.7 mm
same,SSF %,[4]; [9],35 ± 6.5%
same,SST (mm),[4]; [9],10.3 ± 1.6 mm
same,Telediastolic volumen,[4]; [9],87 ± 11 mL
same,Telesystolic volume,[4]; [9],65 ± 23 mL
same,LVEF %,[4]; [10],57 ± 6.6%
same,SPWT (mm),[4]; [10],11.3 ± 1.8 mm
same,SSF %,[4]; [10],42 ± 9.6%
same,SST (mm),[4]; [10],10.7 ± 1 mm
same,Telediastolic volumen,[4]; [10],111 ± 16 mL
same,Telesystolic volume,[4]; [10],49 ± 8 mL
same,LVEF %. Mean ± SD,"[4]; Cohort 1, acute treatment, 90 days after treatment",57.0 ± 6.61%
same,clinical evolution of the patients,"[4]; first cohort, GHRP-6 after successful angioplasty (TIMI 3)","favorable evolution, without further important complications; also recorded: progressive improvement over time"
same,LVEF %,[4]; [11],38 ± 5.9%
same,SSF %,[4]; [11],27 ± 2.6%
same,Telediastolic volumen,[4]; [11],81 ± 14 mL
same,Telesystolic volume,[4]; [11],77 ± 12 mL
same,SPWT (mm),"[4]; start of treatment, minutes after the PTA (baseline), echocardiography",10.1 ± 2 mm
same,overall response to treatment,Grade IV heart failure; Grade IV heart failure patients in the transplant pool,"restore cardiac, hemodynamic, ventilatory and clinical constants"
same,Cardiac output (L/m),Grade IV heart failure; [12],4.3 L/m and 3.8 L/m and 2.9 L/m and 3.2 L/m (2×) and 3.08 L/m and 2.89 L/m
same,LVEF %,Grade IV heart failure; [12],28% and 30% and 29% and 23% and 25% and 31% and 26%
same,Oxygen consumption,Grade IV heart failure; [12],0.462 L/h/kg and 0.42 L/h/kg and 0.384 L/h/kg and 0.432 L/h/kg and 0.456 L/h/kg and 0.396 L/h/kg and 0.57 L/h/kg
same,Systolic volume,"Grade IV heart failure; after treatment, 50-200 μg/kg two or three times a day intravenously, in mL (unit assumed)",50 and 54 and 60 and 56 and 49 and 47 and 51
same,Cardiac output (L/m),Grade IV heart failure; before treatment,3.2 L/m and 2.7 L/m and 1.89 L/m and 2.17 L/m and 2.41 L/m and 2.1 L/m and 1.98 L/m
same,LVEF %,Grade IV heart failure; before treatment,20% (2×) and 19% and 21% (2×) and 22% and 18%
same,Oxygen consumption,Grade IV heart failure; before treatment,0.247 L/h/kg and 0.235 L/h/kg and 0.183 L/h/kg and 0.246 L/h/kg and 0.232 L/h/kg and 0.252 L/h/kg and 0.218 L/h/kg
same,Systolic volume,Grade IV heart failure; before treatment,29 (2×) and 30 and 31 and 35 and 25 and 27
